Results on nine compounds are retold here after the Kinase Knowledgebase extract (Sharma et al. 2016).

Broadly, the IC50 is the concentration needed to halve the response being measured. A higher IC50 goes with a need for much substance.

Some results are limits rather than exact numbers.

For one experiment, the target named is PIK3CD (Human) (UniProt O00329). The experiment can be described thus: Assessment of PIK3CD Kinase Activity.
The target in another experiment is PIK3CA (human) (UniProt P42336). The experiment can be described thus: Assessment of PIK3CA Kinase Activity.
The target in another experiment is PIK3CB (Human) (UniProt P42338). The experiment can be described thus: Assessment of PIK3CB Kinase Activity.
Chain of PIK3CB (Human) (P42338 whole entry, looked up): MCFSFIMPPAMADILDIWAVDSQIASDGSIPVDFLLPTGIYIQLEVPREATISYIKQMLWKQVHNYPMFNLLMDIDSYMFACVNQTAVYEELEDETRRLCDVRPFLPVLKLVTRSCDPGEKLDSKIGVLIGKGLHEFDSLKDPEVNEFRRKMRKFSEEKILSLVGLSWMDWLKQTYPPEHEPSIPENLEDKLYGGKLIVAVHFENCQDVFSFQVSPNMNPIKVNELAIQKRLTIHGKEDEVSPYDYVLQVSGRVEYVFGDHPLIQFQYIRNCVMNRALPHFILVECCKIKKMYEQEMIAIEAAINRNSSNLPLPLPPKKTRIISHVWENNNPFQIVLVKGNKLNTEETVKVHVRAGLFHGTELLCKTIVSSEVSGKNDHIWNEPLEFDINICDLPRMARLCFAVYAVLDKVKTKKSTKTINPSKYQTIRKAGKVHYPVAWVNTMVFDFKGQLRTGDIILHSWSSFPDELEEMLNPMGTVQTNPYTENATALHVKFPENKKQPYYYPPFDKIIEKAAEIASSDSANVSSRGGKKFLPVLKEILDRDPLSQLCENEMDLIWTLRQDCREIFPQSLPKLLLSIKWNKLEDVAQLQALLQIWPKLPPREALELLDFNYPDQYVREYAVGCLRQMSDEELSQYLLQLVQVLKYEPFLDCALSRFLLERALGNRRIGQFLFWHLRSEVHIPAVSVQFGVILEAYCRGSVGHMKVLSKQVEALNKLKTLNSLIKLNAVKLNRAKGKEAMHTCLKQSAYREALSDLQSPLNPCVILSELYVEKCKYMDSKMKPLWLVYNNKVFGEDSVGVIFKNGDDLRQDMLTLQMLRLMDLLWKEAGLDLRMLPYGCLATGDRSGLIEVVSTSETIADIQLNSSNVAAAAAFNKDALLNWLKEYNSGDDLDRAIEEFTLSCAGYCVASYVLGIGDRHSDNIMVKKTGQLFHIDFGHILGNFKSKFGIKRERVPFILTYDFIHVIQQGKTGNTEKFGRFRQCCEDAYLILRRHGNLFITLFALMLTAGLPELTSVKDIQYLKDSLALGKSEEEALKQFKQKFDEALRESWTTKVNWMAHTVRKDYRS

Chain of PIK3CA (human) (P42336 whole entry, looked up): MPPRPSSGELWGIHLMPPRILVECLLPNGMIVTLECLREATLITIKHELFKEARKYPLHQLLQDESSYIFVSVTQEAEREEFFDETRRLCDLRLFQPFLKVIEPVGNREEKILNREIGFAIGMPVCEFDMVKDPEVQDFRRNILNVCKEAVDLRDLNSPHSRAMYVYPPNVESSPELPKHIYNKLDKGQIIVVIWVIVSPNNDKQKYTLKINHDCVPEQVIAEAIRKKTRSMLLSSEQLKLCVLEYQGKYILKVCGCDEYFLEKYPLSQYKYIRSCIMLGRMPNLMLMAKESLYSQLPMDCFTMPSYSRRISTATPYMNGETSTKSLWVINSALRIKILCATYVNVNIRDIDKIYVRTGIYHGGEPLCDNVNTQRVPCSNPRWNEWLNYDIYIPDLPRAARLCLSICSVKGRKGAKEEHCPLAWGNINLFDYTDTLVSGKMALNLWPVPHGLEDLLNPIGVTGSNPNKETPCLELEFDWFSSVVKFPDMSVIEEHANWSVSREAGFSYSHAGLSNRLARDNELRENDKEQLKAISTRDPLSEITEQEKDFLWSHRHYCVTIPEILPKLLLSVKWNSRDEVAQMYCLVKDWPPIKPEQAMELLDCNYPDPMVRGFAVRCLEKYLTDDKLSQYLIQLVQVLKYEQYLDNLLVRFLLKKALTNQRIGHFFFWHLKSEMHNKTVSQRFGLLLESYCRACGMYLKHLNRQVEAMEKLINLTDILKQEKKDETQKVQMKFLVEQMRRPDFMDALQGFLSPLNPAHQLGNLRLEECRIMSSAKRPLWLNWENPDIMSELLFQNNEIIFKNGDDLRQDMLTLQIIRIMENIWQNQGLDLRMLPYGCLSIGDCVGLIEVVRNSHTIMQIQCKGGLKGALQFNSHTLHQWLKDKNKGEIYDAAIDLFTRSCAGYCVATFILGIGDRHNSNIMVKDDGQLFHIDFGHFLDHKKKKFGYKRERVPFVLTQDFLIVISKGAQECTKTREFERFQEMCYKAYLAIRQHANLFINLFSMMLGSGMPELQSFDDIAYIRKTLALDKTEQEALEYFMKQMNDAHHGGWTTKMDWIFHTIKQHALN
Chain of PIK3CD (Human) (O00329 whole entry, looked up): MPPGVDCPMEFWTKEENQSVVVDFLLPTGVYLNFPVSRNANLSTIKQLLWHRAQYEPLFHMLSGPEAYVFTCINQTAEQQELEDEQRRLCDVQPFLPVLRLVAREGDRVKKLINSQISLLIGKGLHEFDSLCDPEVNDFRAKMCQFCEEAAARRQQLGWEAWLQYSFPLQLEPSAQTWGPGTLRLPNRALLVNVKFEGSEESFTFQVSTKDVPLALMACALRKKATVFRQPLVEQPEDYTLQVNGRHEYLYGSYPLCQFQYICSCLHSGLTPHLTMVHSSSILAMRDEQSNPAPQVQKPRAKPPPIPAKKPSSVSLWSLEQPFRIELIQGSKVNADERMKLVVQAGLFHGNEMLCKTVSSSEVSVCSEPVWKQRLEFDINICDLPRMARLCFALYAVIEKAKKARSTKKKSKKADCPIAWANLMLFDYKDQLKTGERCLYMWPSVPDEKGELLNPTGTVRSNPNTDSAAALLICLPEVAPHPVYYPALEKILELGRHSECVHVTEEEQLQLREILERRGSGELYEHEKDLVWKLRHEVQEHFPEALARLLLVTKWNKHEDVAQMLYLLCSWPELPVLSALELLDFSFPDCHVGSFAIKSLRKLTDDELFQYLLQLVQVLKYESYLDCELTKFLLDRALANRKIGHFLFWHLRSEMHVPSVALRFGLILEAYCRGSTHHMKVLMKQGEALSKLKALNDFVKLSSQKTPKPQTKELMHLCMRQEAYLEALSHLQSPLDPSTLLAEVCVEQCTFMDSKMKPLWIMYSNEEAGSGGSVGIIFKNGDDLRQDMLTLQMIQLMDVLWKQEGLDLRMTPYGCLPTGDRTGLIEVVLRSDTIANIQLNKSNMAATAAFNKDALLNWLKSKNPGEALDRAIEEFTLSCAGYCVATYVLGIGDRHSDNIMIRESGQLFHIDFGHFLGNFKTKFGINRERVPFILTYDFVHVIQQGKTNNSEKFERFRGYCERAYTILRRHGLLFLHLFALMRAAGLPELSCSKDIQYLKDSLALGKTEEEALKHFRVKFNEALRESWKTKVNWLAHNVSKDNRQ

`CN(C)CCCOc1cccc2c1nc(C(F)F)n2-c1nc(OC2CCN(S(C)(=O)=O)CC2)nc(N2CCOCC2)n1`: the IC50 at PIK3CD (Human) and against PIK3CA (human) was 100 to 1000 nM throughout.

Take `COc1cccc2c1nc(C(F)F)n2-c1nc(N2CCOCC2)c2cnn(C3CCN(S(=O)(=O)CCN(C)C)CC3)c2n1`: the IC50 is 100 to 1000 nM at PIK3CB (Human), 100 to 1000 nM on PIK3CD (Human) and below 100 nM against PIK3CA (human).

For the compound `COc1cccc2c1nc(C(F)F)n2-c1nc(OC2CCN(S(=O)(=O)CCN3CCOCC3)CC2)nc(N2CCOCC2)n1`, the IC50 against PIK3CD (Human) and at PIK3CA (human) was below 100 nM throughout.

On to `COc1cc(N)cc2c1nc(C(F)F)n2-c1nc(N2CCOCC2)nc(N2CCN(S(=O)(=O)CCN(C)C)CC2)n1`, for which the IC50 against PIK3CB (Human) is 100 to 1000 nM; on PIK3CD (Human) it was below 100 nM; against PIK3CA (human) it was below 100 nM.

In the case of `COc1cccc2c1nc(C(F)F)n2-c1nc(-c2ccc(N(C)S(=O)(=O)CCN(C)C)cc2)nc(N2CCOCC2)n1`, the IC50 on PIK3CD (Human) and against PIK3CA (human) was 100 to 1000 nM in each case.

Consider `COc1cccc2c1nc(C(F)F)n2-c1nc(N2CCOCC2)nc(N(CCCN(C)C)C2CCN(S(=O)(=O)CCl)CC2)n1`, for which the IC50 on PIK3CD (Human) is below 100 nM; on PIK3CA (human), 100 to 1000 nM.

Consider `CN(C)CCS(=O)(=O)N1CCN(c2nc(N3CCOCC3)nc(-n3c(C(F)F)nc4ccccc43)n2)CC1`, for which the 50% inhibitory concentration (IC50) against PIK3CD (Human) and against PIK3CA (human) was 100 to 1000 nM throughout.

In turn, `COc1cccc2c1nc(C(F)F)n2-c1nc(-c2ccc(S(=O)(=O)N3CCN(C)CC3)cc2)nc(N2CCOCC2)n1` came in with a 50% inhibitory concentration (IC50) at PIK3CA (human) of 100 to 1000 nM.

`COc1cccc2c1nc(C(F)F)n2-c1nc(N2CCOCC2)nc(N2CCC[C@H](N(CCCN(C)C)S(C)(=O)=O)C2)n1`: the 50% inhibitory concentration (IC50) against PIK3CD (Human) and against PIK3CA (human) was 100 to 1000 nM each time.
